The values that follow come from patent EP1196154B1, “INHIBITION OF RENAL UPTAKE OF RADIOMOLECULES WITH A COMBINATION OF LYSINE AND ARGININE” (MALLINCKRODT, INC., priority 1999, dated 2001).

Series [1] is described as follows: Vomiting and symptoms in patients during amino acid infusion. In kind it is in vivo, humans. On the procedure: 26 patients received 1 to 5 therapeutic doses of 1-10 GBq ^90Y-DOTA,Tyr^3-octreotide, with concomitant infusion of a 2030 mL cocktail of various amino acids in 4 hours, starting 30 min. before the administration of the radiopharmaceutical (see MATERIALS, paragraph B. for exact details). In 11 of these 26 patients (42%), [being 20 of 84 treatments (24%)] one or more episodes of vomiting occurred, up to 30 episodes of severe vomiting per treatment.
In one of these 11 patients the vomiting was so severe during the 2 treatments with the above described regimen, that it was decided to use an infusion with 50 g of L-lysine instead of the infusion with the cocktail of various amino acids concomitant with their 3rd and 4th therapy with ^90Y-DOTA,Tyr^3-octreotide.
8 patients received multiple therapeutic doses of 7-11 GBq ^111In-pentetreotide. All received once a concomitant infusion of a 2030 mL cocktail of various amino acids in 4 hours, starting 30 min. before the administration of the radiopharmaceutical (see MATERIALS, paragraph B. for exact details). In 4 of these 8 patients (50%) vomiting occurred.
In these same 8 patients only 3 episodes […] of vomiting occurred during 22 treatments with 7-11 GBq ^111In-pentetreotide while they received 25 or 50 grams of L-lysine in 500 to 2000 mL (see MATERIALS, paragraph C. for exact details) over 4 hours, starting 30 min. before administration of the radiopharmaceutical, as concomitant infusions.
In an experiment of the invention 11 patients received an infusion over 4 hours of a solution containing 25 g L-lysine and 25 g L-arginine in 1000 mL (Lys/Arg; see MATERIALS, paragraph A. for exact formulation). Thirty min. after the start of the infusion they received a diagnostic dose of 220 MBq ^111Inpentetreotide. Ten patients had no symptoms during the infusion, in particular no vomiting. […] During the Lys/Arg infusion they vomited twice.
Five patients received the Lys/Arg infusion in the same manner as described above, but they received a therapeutic dose of 1850 MBq [^177Lu-DOTA,Tyr^3]octreotate, 30 min. after the start of the Lys/Arg infusion. None of these 5 patients had any symptoms at all, in particular no vomiting.
Until now the Lys/Arg infusion, 1000 mL in 4 hours concomitant with therapeutic doses of radioactive labelled peptides, has been administered to more than 30 patients, in total more than 80 occasions. Vomiting occurs in less than 5% of the occasions, and if it occurs it is most probably due to other causes.

Series [2] is described as follows: Serum potassium level in patients during amino acid infusion. In kind it is in vivo, humans. On the procedure:
In an experiment of the invention 11 patients received an infusion over 4 hours of a solution containing 25 g L-lysine and 25 g L-arginine in 1000 mL (Lys/Arg; see MATERIALS, paragraph A. for exact formulation). The potassium level of these patients was measured in serum at t=0 hours and after 0.5, 1, 2, 4 and 5 hours.
As a control 6 patients received 75 g L-lysine in 1500 mL during 4 hours (see MATERIALS, paragraph C. for exact formulation).

Series [3] relates to kidneys. Briefly: Renal uptake of [^111In-DTPA-D-Phe^1]octreotide in rats with amino acid administration. In kind it is in vivo. The following applies: for inhibition at 400 mg/kg: Rattus norvegicus. On the procedure: Furthermore, it has been described by De Jong et al. in J. Nucl. Med 37(8): 1388-1392 (1996) that uptake in the rat kidneys of the [^111In-DTPA-D-Phe^1]octreotide can be inhibited by 50% by intravenous administration of the amino acid L-lysine alone (400 mg/kg). In a further article by Bernard et al. in J. Nucl.
L-arginine alone gave a reduction of 20-30% at an equimolar dose. In human studies 15, 21 and 40% reduction of kidney uptake of [^111In-DTPA-D-Phe^1]octreotide was reached using a dose of 25, 50 and 75 g L-lysine, respectively. […] Hyperkalemia may result in acute and life-threatening cardiotoxicity.

Series [4] is described as follows: Osmolarity of infusion fluids. The conditions noted are these: infusion fluid as prepared. In kind it is physicochemical.
For series [5], the system named is kidneys. The series can be described thus: Kidney uptake of ^111In-pentetreotide in patients with amino acid infusion (planar scintigraphy and dosimetry). The conditions noted are these: for reduction of kidney uptake of [^111In-DTPA-D-Phe^1]octreotide: human studies. In kind it is in vivo, humans. On the procedure:
A 1000 mL infusion containing 25 g L-lysine and 25 g L-arginine (Lys/Arg; see MATERIALS, paragraph A. for exact formulation) was administered intravenously to patients during 4 hours, starting 30 minutes prior to administration of the radioligand. One radioligand was [^111In-DTPA-D-Phe^1]octreotide (^111In-pentetreotide, OctreoScan®, Mallinckrodt Medical, Petten, The Netherlands) in a diagnostic amount of 220 MBq (9 patients). Each patient was also investigated on a separate occasion with 220 MBq ^111In-pentetreotide, but without any infusion. The other radioligand was [^177Lu-DOTA,Tyr^3]octreotate in a therapeutic amount of 1850 MBq (5 patients). Each patient was also investigated on a separate occasion with 1850 MBq [^177Lu-DOTA,Tyr^3]-octreotate, but without any infusion. The control experiment (5 patients) consisted of infusion of 1000 mL neutral infusion fluid without the amino acids (NaCl 0.45% plus Glucose 2.5%)over 4 hours, starting 30 min. prior to the injection of 220 MBq ^111In-pentetreotide.
24 Hours post infusion the uptake of the radioligand in the kidneys, spleen and liver was measured using planar scintigraphy and dosimetry, and for each patient the ratio between uptake in these organs during infusion with Lys/Arg and without Lys/Arg was calculated (Figures 1, 2 and 3).
At least 5 patients received one of the following amino acid preparations: • 1. AA (2030 mL cocktail of various amino acids; see MATERIALS, paragraph B, for the source and details) • 2. 25 g L-lysine in 500 mL (see MATERIALS, paragraph C, for exact formulation) • 3. 50 g lysine in 2000 mL (see MATERIALS, paragraph C, for exact formulation) • 4. 75 g lysine in 1500 mL (see MATERIALS, paragraph C, for exact formulation) • 5. 25 g L-lysine and 25 g L-arginine in 1000 mL (invention), (Lys/Arg; see MATERIALS, paragraph A. for exact formulation).
The preparations were given intravenously over 4 hours starting 30 minutes before treatment with the radioligand started. The radioligand was ^111Inpentetreotide, either in a diagnostic amount of 220 MBq, or in a therapeutic amount, 7 - 11 GBq. Each patient was his or her own control. The control consisted of treatment with the radioligand but without an amino acid preparation.
At 24 and 48 hours post infusion the ratio between tissue uptake in the left kidney in patients receiving an amino acid composition and the controls was determined by planar scintigraphy and dosimetry.

Series [6] relates to kidneys. The conditions noted are these: Bernard et al.; cited from earlier work.

Values joined by “and” are separate entries in the source; they are usually repeats but may differ in a detail not shown here. Equal entries are not always repeated.

For the compound Lys/Arg, in series [1] (human, in vivo), the “occasions on which vomiting occurs” value is recorded as “less than 5%”, the “patients who suffered from vomiting” value is listed as “none”, the “tolerability on 4 later occasions in the same patient” value was “without any problems” and the “treatments in which vomiting occurred” value worked out at 8%. Also, the “patients having a maximum potassium value of 6.0 mmol/L” value in series [2] (human, in vivo) is recorded as “one out of eleven”.
On to `N=C(N)NCCC[C@H](N)C(=O)O` [L-arginine], for which, in the series with kidneys [3] (alone, at an equimolar dose (to lysine 400 mg/kg)), the “reduction of renal uptake of [^111In-DTPA-D-Phe^1]octreotide in rats” value is reported as 20-30%.
What is called inhibition is how much of the control response was suppressed. A lower inhibition goes with a weak effect. In the series on kidneys [3], `NCCCC[C@H](N)C(=O)O` [L-lysine] showed an inhibition at 400 mg/kg of 50%. The osmolarity result in series [4] is “ca. 400 mosmol/L”. In series [1] (25 or 50 grams in 500 to 2000 mL over 4 hours, 7-11 GBq ^111In-pentetreotide, 3 episodes during 22 treatments, 8 patients), the “episodes of vomiting during treatments” value is 9%. Further, the tolerability / toxicity entry in series [1] (human studies, doses of 25 and 50 g) is “well tolerated without any toxicity noted”. Besides, the “vomiting (conclusion from EXAMPLES 4, 5 and 6)” value in series [1] (infusion over 4 hours) is given as “seldomly observed”. Also, the episodes of vomiting result in series [1] (one patient, 50 g, 3rd therapy with ^90Y-DOTA,Tyr^3-octreotide) is on record as “one”. In addition, the vomiting result in series [1] (one patient, 50 g, 4th therapy with ^90Y-DOTA,Tyr^3-octreotide) is listed as “no vomiting at all”. Also, the hyperkalemia result in series [2] (75 g L-lysine (Table 2), 25 g L-lysine plus 25 g L-arginine (Table 1)) is “severe hyperkalemia”. In addition, in series [2] (75 g in 1500 mL), the “patients with a maximum potassium level above the critical value of 6.0 mmol/L” value is on record as 3 out of 6. Also, the “maximum potassium (K) level in serum” value in series [2] (75 g in 1500 mL over 4 hours, single patients 12-17) was 5.2 mmol/L and 6.8 mmol/L and 6.7 mmol/L and 5.4 mmol/L and 5.0 mmol/L and 6.3 mmol/L. In addition, the “patients with severe hyperkalemia” value in series [2] (humans, total dose of 75 g) was 50%. In addition, the “[^111In-DTPA-D-Phe^1]octreotide uptake reduction in the left kidney, rank among amino acid preparations (Figure 4)” value in the series with kidneys [5] (24 and 48 hours post infusion, 75 g L-lysine, 25 g L-lysine plus 25 g L-arginine) is “highest uptake reduction”. The “reduction of kidney uptake of [^111In-DTPA-D-Phe^1]octreotide” value turned out to be 15% with kidneys [5] (dose of 25 g), 21% in the series on kidneys [5] (dose of 50 g) and 40% in the series with kidneys [5] (dose of 75 g).
`NCCCC[C@@H](N)C(=O)O` [D-lysine] gave an inhibition at 400 mg/kg in the series with kidneys [3] of 50%. Also, the “reducing the rat renal uptake of [^111In-DTPA-D-Phe^1]octreotide and ^90Y-DOTA,Tyr^3-octreotide” value with kidneys [6] is reported as “capable of reducing”.
